# Source: US5843885A, “ICAM-1/LFA-1 short-chain peptides and method of using same” (The University of Kansas, priority 1997, dated 1998)
# Where no end group is shown, it is not given here.
# B1: LJCRF-3 (peptide)
# peptide: KELLLPGNNRKVYELSNVQEDSQP
# How the values were obtained:
# Molt3 cells = assay: Cell metabolic assay (MTT); type: cell-based, human
# Description: After taking the photographs in Example 3 (and in some instances no photographs were taken), cell metabolic activity was assessed by an MTT assay. A 37.5 μl portion of MTT dye (purchased from SIGMA of St. Louis, Mo.), i.e., 3-[4,5-dimethyl thiazole-2yl]-2, 5-diphenyl tetrazolium bromide; thiazolyl blue) was added to each well, and incubated with the cells at 37° C. for about six hours. After incubation, a 250 μl quantity of a MTT solubilization solution (of a type that may be purchased from either Fischer Scientific of St. Louis, Mo. or BCD Labs of Lawrence, Kans.) was added to each well, and incubated with the cells at room temperature overnight. In the morning, the spectrophotometric absorption of each plate was determined at 570 nm in a microplate ELISA reader manufactured by Cambridge Technologies of Watertown, Mass., in order to assess cell viability as an indicator of potential peptide toxicity.
# ICAM-1 on Molt3 cells = molecular target: T1, ICAM-1 on Molt3 cells (Homo sapiens, UniProt P05362); assay: Conformation modulator assay: binding of FITC-labeled RB-1-88 peptide to T-cells (FACS); conditions: first peptide 4550 μM, then FITC-labeled RB-1-88 1.90 μM
# T1 construct: host or cells: Molt3 human T-cell line
# Description: The antibody binding assay of Example 2 was twice repeated at a peptide concentration of 4550 μM, each time substituting a 455 nmol quantity of synthetic peptide selected from the group consisting of ICAM-based peptide SC-3-111 (Sequence ID No. 10) and LFA-based peptide LJCRF-4 (Sequence ID No. 16) in respective assays. Following incubation for 30 minutes at 37° C. after introduction of the first peptides, both incubated culture were supplemented by an additional quantity of FITC-labeled RB-1-88 (Sequence ID No. 19) peptide in a quantity sufficient to provide a 1.90 μM concentration in the cell/PBS solution.
# Following addition of the RB-1-88 (Sequence ID No. 19) peptide, the mixture was incubated for 30 minutes at 4° C., washed three times with 500 μl PBS/BSA, resuspended in 500 μl PBS/BSA and immediately subjected to a flow cytometer analysis as before. Table 3 presents the results of this analysis, which are also depicted in FIGS. 8 (SC-3-111) and 9 (LJCRF-4).
# [1] = molecular target: T2, ICAM-1 (CD54) on Molt3 cells (Homo sapiens, UniProt P05362); assay: Antibody binding assay (FACS): anti-CD54 mAb binding to Molt3 T-cells; conditions: for Fluorescence, % change from control of the medium fluorescence intensity: mAb CD54
# T2 construct: host or cells: Molt3 human T-cell line
# [2] = molecular target: T3, LFA-1 (CD11a) on Molt3 cells (Homo sapiens, UniProt P20701); assay: Antibody binding assay (FACS): anti-CD11a mAb binding to Molt3 T-cells; conditions: for Fluorescence, % change from control of the medium fluorescence intensity: mAb CD11a, average ± standard error; for blocking efficiency: single run (FIGS. 2 and 3)
# T3 construct: host or cells: Molt3 human T-cell line
# Description: A 1 ml quantity of the Molt3 inoculum was warmed to 37° C. and transferred by pipette into about 25 ml of a growth culture medium including RPMI 1640 lymphocyte growth medium (Fisher Scientific of St. Louis, Mo.) mixed with 10% by volume fetal calf serum, 100 units/ml penicillin, 100 μg/ml streptomycin and 2 mM glutamine. The inoculated culture was incubated for three to four days at 37° C. under a normal atmosphere having about 5% CO2 added thereto. This culture was capable of being maintained indefinitely by siphoning away the top (non-cell containing) layer and adding 50 ml (or more) of growth culture medium at intervals of three to four days.
# An aqueous buffer solution including Dulbecco's phosphate buffered saline and bovine serum albumin ("PBS/BSA solution") was prepared for use, and included a mixture of 200 mg KH2 PO4, 1.15 g Na2 HPO4, 100 mg CaCl2, 200 mg KC1, 100 mg MgCl2.6H2 O, 8 g NaCl, with distilled water added to a final 1 liter volume at room temperature, thus, forming a "PBS" solution of pH 7.4 to which was added 0.5% by weight bovine serum albumin.
# An aliquot of about 7 ml was removed from the incubated culture medium and subjected to washing with the PBS/BSA solution. The washing procedure was initiated by placing the aliquot in a centrifuge (Model GT422 from Jouan, distributed Piruscio & Assoc. of Manchester, Mo.) at 1400 rpm for 6.5 minutes to separate the cells from the growth medium. The supernatant fluid was decanted, a 5 ml portion of PBS/BSA solution was transferred by pipette into the pellet, and the mixture was again centrifuged as before. The resulting supernatant fluid was decanted and the cells from the pellet were resuspended in PBS/BSA solution at a titer of about 1×10^6 cells/ml. A 500 μl portion of the solution containing the resuspended cells was placed in a microcentrifuge (Marathon 13K/M from Fisher Scientific of St. Louis, Mo.) at 3500 rpm for six minutes, to provide a washed pellet.
# […] The cells were incubated with the peptide cocktail at 37° C. for 45 minutes.
# After incubation with the peptide cocktail, several antibodies were successively mixed into the incubated solution. A 75 μl portion of anti-IgM solution (a mixture of 10 μl of goat anti-human IgM stock purchased from Jackson Immuno Research of Westgrove, Pa; and 65 μl of PBS/BSA solution) was added to the peptide cocktail for blocking of nonspecific binding of the secondary antibody. The resulting mixture was incubated for 10 minutes on ice. About 0.1 μg of a primary antibody including mouse IgG anti-human CD11a (purified according to conventional protocols at the University of Kansas Department of Pharmacology and Toxicology from an American Type Culture hybridoma cell line having Catalogue Number HB-202) was next stirred into the mixture, which was then incubated for 30 minutes at room temperature. The incubated mixture was placed in a microcentrifuge at 3500 rpm for six minutes to remove the cells from the mixture, and the cell pellet was washed two times by adding 500 μl aliquots of PBS/BSA solution and microfuging to remove non-bound antibodies from the cells as before. The resulting washed pellet was resuspended in 100 μl of a secondary antibody cocktail including 5 μl of fluorescein isothiocyanate ("FITC") labeled goat anti-mouse IgG (from CALTAG of South San Francisco, Calif.) and 95 μl of PBS/BSA solution. The resulting solution was incubated for 30 minutes at room temperature in the dark.
# The incubated solution including the secondary antibody cocktail was microfuged at 3500 rpm for six minutes to remove the cells from the solution, and the cell pellet was washed two times with 500 μl portions of PBS/BSA solution, as before, to remove unbound antibodies. […]
# [3] = molecular target: Leucocyte Function Associated antigen-1 (LFA-1), on Molt3 human T-cells (human); assay: flow cytometry on Molt3 T-cells; control without peptide; FITC goat anti-mouse IgG secondary
# [4] = molecular target: Leucocyte Function Associated antigen-1 (LFA-1), on Molt3 human T-cells (human); assay: flow cytometry on Molt3 T-cells preincubated with SC-3-111 (run of FIG. 2); FITC goat anti-mouse IgG secondary
# [5] = molecular target: Leucocyte Function Associated antigen-1 (LFA-1), on Molt3 human T-cells (human); assay: flow cytometry on Molt3 T-cells; peptide 4550 µM; probe antibody mouse IgG anti-human CD11a; average of 2 runs
# [6] = peptide 4550 μM, average ± standard error
# T3 sequence (P20701 26-1170): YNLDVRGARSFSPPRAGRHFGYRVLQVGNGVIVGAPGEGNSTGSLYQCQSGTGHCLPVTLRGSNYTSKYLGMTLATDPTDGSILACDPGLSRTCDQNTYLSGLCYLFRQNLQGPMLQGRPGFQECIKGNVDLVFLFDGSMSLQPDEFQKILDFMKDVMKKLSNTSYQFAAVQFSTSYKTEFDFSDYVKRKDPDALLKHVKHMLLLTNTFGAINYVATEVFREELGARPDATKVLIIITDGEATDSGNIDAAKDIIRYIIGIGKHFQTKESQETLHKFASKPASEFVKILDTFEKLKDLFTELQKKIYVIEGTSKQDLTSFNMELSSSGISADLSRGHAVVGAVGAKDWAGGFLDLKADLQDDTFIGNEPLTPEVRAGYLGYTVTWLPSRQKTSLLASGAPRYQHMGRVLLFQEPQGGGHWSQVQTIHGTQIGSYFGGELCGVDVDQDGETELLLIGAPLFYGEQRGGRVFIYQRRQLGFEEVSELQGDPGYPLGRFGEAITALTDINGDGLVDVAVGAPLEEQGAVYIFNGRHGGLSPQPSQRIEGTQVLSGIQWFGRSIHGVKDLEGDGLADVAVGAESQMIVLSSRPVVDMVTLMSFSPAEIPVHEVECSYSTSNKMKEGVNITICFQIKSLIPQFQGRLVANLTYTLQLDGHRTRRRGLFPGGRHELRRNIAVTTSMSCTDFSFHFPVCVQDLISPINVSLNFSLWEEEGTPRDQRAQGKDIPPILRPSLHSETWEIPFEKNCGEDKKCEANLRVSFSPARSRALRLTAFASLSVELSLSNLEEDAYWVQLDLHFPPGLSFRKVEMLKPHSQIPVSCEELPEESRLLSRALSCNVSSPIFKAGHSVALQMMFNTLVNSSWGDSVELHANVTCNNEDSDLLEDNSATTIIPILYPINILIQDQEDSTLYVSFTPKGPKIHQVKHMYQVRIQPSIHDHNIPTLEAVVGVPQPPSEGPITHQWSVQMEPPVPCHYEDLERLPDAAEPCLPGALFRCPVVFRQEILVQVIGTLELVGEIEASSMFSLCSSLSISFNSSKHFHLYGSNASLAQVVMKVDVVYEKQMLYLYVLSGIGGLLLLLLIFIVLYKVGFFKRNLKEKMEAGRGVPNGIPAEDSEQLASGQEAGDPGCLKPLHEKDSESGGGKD
# T3 sequence (P05107 23-769 partner): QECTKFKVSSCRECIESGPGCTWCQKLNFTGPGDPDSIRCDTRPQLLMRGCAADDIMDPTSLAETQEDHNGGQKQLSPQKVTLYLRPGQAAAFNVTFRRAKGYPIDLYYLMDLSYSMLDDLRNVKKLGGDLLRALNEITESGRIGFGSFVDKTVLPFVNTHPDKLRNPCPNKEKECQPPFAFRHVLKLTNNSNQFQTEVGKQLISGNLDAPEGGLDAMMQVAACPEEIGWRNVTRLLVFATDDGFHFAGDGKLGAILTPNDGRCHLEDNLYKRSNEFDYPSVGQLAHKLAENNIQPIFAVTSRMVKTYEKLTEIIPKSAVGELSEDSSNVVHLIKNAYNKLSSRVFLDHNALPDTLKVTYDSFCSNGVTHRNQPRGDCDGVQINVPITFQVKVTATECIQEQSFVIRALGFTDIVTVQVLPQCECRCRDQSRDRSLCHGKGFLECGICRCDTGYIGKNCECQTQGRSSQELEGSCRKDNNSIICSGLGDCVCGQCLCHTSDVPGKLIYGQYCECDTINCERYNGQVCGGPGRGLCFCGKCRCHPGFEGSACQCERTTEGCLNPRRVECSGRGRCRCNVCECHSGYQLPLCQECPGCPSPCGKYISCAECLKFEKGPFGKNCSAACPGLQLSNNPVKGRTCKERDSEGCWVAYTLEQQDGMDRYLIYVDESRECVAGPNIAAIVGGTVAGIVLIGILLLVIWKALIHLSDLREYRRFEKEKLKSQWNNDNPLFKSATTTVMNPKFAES
# T2 sequence (P05362 28-532): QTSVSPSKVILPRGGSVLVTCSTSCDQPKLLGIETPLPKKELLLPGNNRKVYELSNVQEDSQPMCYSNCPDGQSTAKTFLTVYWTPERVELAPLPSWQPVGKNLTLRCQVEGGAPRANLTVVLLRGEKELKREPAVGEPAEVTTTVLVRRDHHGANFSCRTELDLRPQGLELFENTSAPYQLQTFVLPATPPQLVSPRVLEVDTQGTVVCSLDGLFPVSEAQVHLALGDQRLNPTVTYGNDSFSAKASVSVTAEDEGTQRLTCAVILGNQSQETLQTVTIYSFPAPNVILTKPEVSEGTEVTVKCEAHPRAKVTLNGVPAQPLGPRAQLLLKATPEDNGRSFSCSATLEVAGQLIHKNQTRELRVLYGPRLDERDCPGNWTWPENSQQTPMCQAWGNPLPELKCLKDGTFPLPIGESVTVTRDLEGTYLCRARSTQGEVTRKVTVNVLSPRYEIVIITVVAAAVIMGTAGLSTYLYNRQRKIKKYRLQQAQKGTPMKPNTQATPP
# T1 sequence (P05362 28-532): as above
Molecule,MTT % Viability (Molt3 cells; 230 μM) [%],MTT % Viability (Molt3 cells; 460 μM) [%],MTT % Viability (Molt3 cells; 910 μM) [%],MTT % Viability (Molt3 cells; 1820 μM) [%],"Fluorescence, % change from control of the medium fluorescence intensity ([2]; peptide 2275 μM)","Fluorescence, % change from control of the medium fluorescence intensity ([2]; peptide 4550 μM) [%]",other results
DLSYSLDDLRNVKKLGGDLLRALNE [LJCRF-4],101,94,60,11,–,–,"MTT % Viability (Molt3 cells; 115 μM): 99%; MTT % Viability (Molt3 cells; 115 μM, listed as SC-3-223): 103%; MTT % Viability (Molt3 cells; 230 μM, listed as SC-3-223): 109%; MTT % Viability (Molt3 cells; 460 μM, listed as SC-3-223): 112%; MTT % Viability (Molt3 cells; 910 μM, listed as SC-3-223): 108%; MTT % Viability (Molt3 cells; 1820 μM, listed as SC-3-223): 75%; FACS Analysis (RB-1-88 binding), shift from control (ICAM-1 on Molt3 cells): +145%; Fluorescence, % change from control of the medium fluorescence intensity ([1]; peptide 2275 μM, average ± standard error): +3 ± 1%; Fluorescence, % change from control of the medium fluorescence intensity ([1]; peptide 6825 μM): +521%; curve shift / median peak enhancement ([1]; single run (FIG. 4), 4550 μM, anti-ICAM-1 mAb): +447%"
DQPKLLGIETPLPKKELLLPGNNRK [LJCRF-2],38,38,38,43,+48 ± 8%,-43 ± 7,MTT % Viability (Molt3 cells; concentration not given): 38%
GVDVDQDGETELIGAPLFYGEQRG [LJCRF-5],84,81,52,20,–,–,"MTT % Viability (Molt3 cells; 115 μM): 95%; metabolic activity in MTT assay (Molt3 cells; 1820 μM): decrease in metabolic activity; Fluorescence, % change from control of the medium fluorescence intensity [1, 6]: -17%"
ITDGEATDSGNIDAAKDIIYIIGI [LJCRF-6],–,–,–,–,–,–,"Fluorescence, % change from control of the medium fluorescence intensity [1, 6]: -4%"
KELLLPGNNRKVYELSNVQEDSQP [LJCRF-3],–,–,–,–,–,-13 ± 19,–
LPRGGSVLVTG [MC-1-80],–,–,–,–,–,–,metabolic activity in MTT assay (Molt3 cells; 910 μM): cellular respiration was enhanced
QTSVSPSKVI [SC-3-111],93,95,89,69,-12 ± 4%,-29 ± 2,"% change of median peak from control ([2]; single run (FIG. 2), 4550 μM, anti-CD11a): -51%; blocking efficiency ([2]; 4550 μM, anti-CD11a): 51%; MTT % Viability (Molt3 cells; concentration not given): 85%"
QTSVSPSKVILPRGGSVLVTG [LJCRF-1],–,93,92,66,-12 ± 2%,-29 ± 3,"blocking efficiency ([2]; 4550 μM, anti-CD11a): 65%"
mouse IgG anti-human CD11a (from American Type Culture hybridoma cell line HB-202) (antibody),–,–,–,–,–,–,median peak fluorescence intensity (fluorescence intensity) [3]: 264; median peak fluorescence intensity (fluorescence intensity) [4]: 129
B1,–,–,–,–,–,–,% change from control of the median fluorescence intensity (% change from control) [5]: -13
